In patent US20250136548A1, “FUNCTIONALIZED ALKYLAMINES” (Terran Biosciences Inc., priority 2022, published 2025):

Legend:
5-HT2A receptor = target: T1, 5-HT2A receptor (Homo sapiens, UniProt P28223); assay: Calcium mobilization assay, agonist format, 5-HT2A receptor; type: cell-based; settings: agonist mode, % activity relative to MAX control ligand (5-HT positive control), read-out: 5-HT2A agonist efficacy @ 1 μM
T1 construct: host or cells: unnamed cell lines
Procedure: (§1) • Protocol: in vitro testing at select 5-hydroxytryptamine (5-HT; serotonin) receptors was conducted.
(§2) Assay Design: Calcium Mobilization
(§3) • 1. Cell lines were expanded from freezer stocks according to standard procedures. • 2. Cells were seeded in a total volume of 20 μL into black-walled, clear-bottom, Poly-D-lysine coated 384-well microplates and incubated at 37° C. for the appropriate time prior to testing.
(§4) • 1. Assays were performed in 1×Dye Loading Buffer consisting of 1× Dye, 1× Additive A and 2.5 mM Probenecid in HBSS/20 mM Hepes. Probenicid was prepared fresh. • 2. Cells were loaded with dye prior to testing. Media was aspirated from cells and replaced with 20 μL Dye Loading Buffer. • 3. Cells were incubated for 30-60 minutes at 37° C.
(§5) • 1. For agonist determination, cells were incubated with sample to induce response. • 2. After dye loading, cells were removed from the incubator and 10 μL HBSS/20 mM Hepes was added. 3× vehicle was included in the buffer when performing agonist dose curves to define the EC80 for subsequent antagonist assays. Cells were incubated for 30 minutes at room temperature in the dark to equilibrate plate temperature. • 3. Intermediate dilution of sample stocks was performed to generate 4× sample in assay buffer. • 4. Compound agonist activity was measured on a FLIPR Tetra (MDS). Calcium mobilization was monitored for 2 minutes and 10 μL 4× sample in HBSS/20 mM Hepes was added to the cells 5 seconds into the assay.
(§6) • 1. Compound activity was analyzed using CBIS data analysis suite (ChemInnovation, CA). • 2. For agonist mode assays, percentage activity is calculated using the following formula:
(§7) % Activity=100%×(mean RFU of test sample−mean RFU of vehicle control)/(mean MAX RFU control ligand −mean RFU of vehicle control). • 3. For positive allosteric mode assays, percentage modulation was calculated using the following formula: […]

5-HT2B receptor = target: T2, 5-HT2B receptor (Homo sapiens, UniProt P41595); assay: Calcium mobilization assay, agonist format, 5-HT2B receptor; type: cell-based; settings: agonist mode, % activity relative to MAX control ligand (5-HT positive control), read-out: 5-HT2B agonist efficacy @ 1 μM
T2 construct: host or cells: unnamed cell lines
Procedure: as §1, §2, §3, §4, §5, §6, §7

T1 sequence (P28223 whole entry): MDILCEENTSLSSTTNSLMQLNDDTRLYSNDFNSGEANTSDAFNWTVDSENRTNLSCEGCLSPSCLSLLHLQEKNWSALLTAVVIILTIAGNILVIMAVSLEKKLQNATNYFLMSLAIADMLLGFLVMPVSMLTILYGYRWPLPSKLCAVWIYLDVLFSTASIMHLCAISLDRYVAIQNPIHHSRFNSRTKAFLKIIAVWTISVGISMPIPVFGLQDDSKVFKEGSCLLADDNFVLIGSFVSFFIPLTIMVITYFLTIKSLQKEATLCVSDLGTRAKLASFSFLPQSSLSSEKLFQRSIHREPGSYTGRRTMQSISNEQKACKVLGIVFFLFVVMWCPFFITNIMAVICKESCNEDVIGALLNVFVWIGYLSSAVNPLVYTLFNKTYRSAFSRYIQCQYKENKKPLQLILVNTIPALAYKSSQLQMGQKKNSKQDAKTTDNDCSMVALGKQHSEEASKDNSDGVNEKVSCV
T2 sequence (P41595 whole entry): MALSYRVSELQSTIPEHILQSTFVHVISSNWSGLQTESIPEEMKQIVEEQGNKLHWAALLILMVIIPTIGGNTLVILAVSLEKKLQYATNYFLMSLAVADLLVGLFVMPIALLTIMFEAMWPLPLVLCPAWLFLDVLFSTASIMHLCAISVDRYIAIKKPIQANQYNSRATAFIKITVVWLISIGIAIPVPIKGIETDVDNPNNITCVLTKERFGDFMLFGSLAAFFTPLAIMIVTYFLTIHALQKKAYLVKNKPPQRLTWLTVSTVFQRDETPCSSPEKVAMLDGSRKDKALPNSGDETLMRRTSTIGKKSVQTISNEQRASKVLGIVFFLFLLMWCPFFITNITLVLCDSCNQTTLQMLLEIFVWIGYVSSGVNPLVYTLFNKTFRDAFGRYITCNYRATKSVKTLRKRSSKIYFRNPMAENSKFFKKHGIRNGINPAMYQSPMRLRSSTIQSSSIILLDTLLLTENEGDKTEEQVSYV

CC1(O)CCN(CCn2ccc3cc(F)ccc32)C1 (stereo not shown) [1-[2-(5-Fluoroindol-1-yl)ethyl]-3-methyl-pyrrolidin-3-ol]
activation at 1 µM (5-HT2A receptor): -0.3% | activation at 1 µM (5-HT2B receptor): -1.1%

CC1(O)CCN(CCc2c[nH]c3ccc(F)cc23)C1 (stereo not shown) [1-[2-(5-fluoro-1H-indol-3-yl)ethyl]-3-methyl-pyrrolidin-3-ol]
activation at 1 µM (5-HT2A receptor): 7.5% | activation at 1 µM (5-HT2B receptor): -1.5%

OC1CCN(CCn2ccc3ccc(F)cc32)C1 (stereo not shown) [1-[2-(6-Fluoroindol-1-yl)ethyl]pyrrolidin-3-ol]
activation at 1 µM (5-HT2A receptor): 2.5% | activation at 1 µM (5-HT2B receptor): -2.8%

CN(CCn1ccc2ccc(F)cc21)CCS(C)(=O)=O [2-(6-Fluoroindol-1-yl)-N-methyl-N-(2-methylsulfonylethyl)ethanamine]
activation at 1 µM (5-HT2A receptor): -1.2% | activation at 1 µM (5-HT2B receptor): -1.3%

OC1CCN(CCn2ccc3cc(F)c(F)cc32)C1 (stereo not shown) [1-[2-(5,6-Difluoroindol-1-yl)ethyl]pyrrolidin-3-ol]
activation at 1 µM (5-HT2A receptor): 2% | activation at 1 µM (5-HT2B receptor): -0.7%

COc1ccc2c3c([nH]c2c1)CCNCC3 [8-methoxy-1,2,3,4,5,6-hexahydroazepino[4,5-b]indole, reference compound]
activation at 1 µM (5-HT2A receptor): 71.7% | activation at 1 µM (5-HT2B receptor): -0.8%

CC1(O)CCN(CCc2c[nH]c3cc(F)c(F)cc23)C1 (stereo not shown) [1-[2-(5,6-difluoro-1H-indol-3-yl)ethyl]-3-methyl-pyrrolidin-3-ol]
activation at 1 µM (5-HT2A receptor): 1.9% | activation at 1 µM (5-HT2B receptor): -1%

OC1CCN(CCc2c[nH]c3ccc(F)cc23)C1 (stereo not shown) [1-[2-(5-fluoro-1H-indol-3-yl)ethyl]pyrrolidin-3-olethanamine]
activation at 1 µM (5-HT2A receptor): 46% | activation at 1 µM (5-HT2B receptor): -0.7%

CN(CCO)CCn1ccc2ccc(F)cc21 [2-[2-(6-Fluoroindol-1-yl)ethyl-methyl-amino]ethanol]
activation at 1 µM (5-HT2A receptor): 8.3% | activation at 1 µM (5-HT2B receptor): 0.2%

CC1(O)CCN(CCn2ccc3ccc(F)cc32)C1 (stereo not shown) [1-[2-(6-Fluoroindol-1-yl)ethyl]-3-methyl-pyrrolidin-3-ol]
activation at 1 µM (5-HT2A receptor): 0% | activation at 1 µM (5-HT2B receptor): -1.3%

CN(CCn1ccc2cc(F)c(F)cc21)CCS(C)(=O)=O [2-(5,6-Difluoroindol-1-yl)-N-methyl-N-(2-methylsulfonylethyl)ethanamine]
activation at 1 µM (5-HT2A receptor): -0.5% | activation at 1 µM (5-HT2B receptor): -1.3%

OC1CCN(CCn2ccc3cc(F)ccc32)C1 (stereo not shown) [1-[2-(5-Fluoroindol-1-yl)ethyl]pyrrolidin-3-ol]
activation at 1 µM (5-HT2A receptor): -0.2% | activation at 1 µM (5-HT2B receptor): -1.2%

CN(CCc1c[nH]c2ccc(F)cc12)CCS(C)(=O)=O [2-(5-fluoro-1H-indol-3-yl)-N-methyl-N-(2-methylsulfonylethyl)ethanamine]
activation at 1 µM (5-HT2A receptor): 27.3% | activation at 1 µM (5-HT2B receptor): -0.5%

CN(CCO)CCc1c[nH]c2ccc(F)cc12 [2-[2-(5-Fluoro-1H-indol-3-yl)ethyl-methyl-amino]ethanol]
activation at 1 µM (5-HT2A receptor): 47.1% | activation at 1 µM (5-HT2B receptor): 1.2%

CN(CCO)CCn1ccc2cc(F)ccc21 [2-[2-(5-Fluoroindol-1-yl)ethyl-methyl-amino]ethanol]
activation at 1 µM (5-HT2A receptor): -0.2% | activation at 1 µM (5-HT2B receptor): -1.4%

CC1(O)CCN(CCn2ccc3cc(F)c(F)cc32)C1 (stereo not shown) [1-[2-(5,6-Difluoroindol-1-yl)ethyl]-3-methyl-pyrrolidin-3-ol]
activation at 1 µM (5-HT2A receptor): -0.1% | activation at 1 µM (5-HT2B receptor): -2.5%

CN(CCn1ccc2cc(F)ccc21)CCS(C)(=O)=O [2-(5-Fluoroindol-1-yl)-N-methyl-N-(2-methylsulfonylethyl)ethanamine]
activation at 1 µM (5-HT2A receptor): -0.8% | activation at 1 µM (5-HT2B receptor): -2.7%

CC1(O)CCN(CCc2c[nH]c3cc(F)ccc23)C1 (stereo not shown) [1-[2-(6-fluoro-1H-indol-3-yl)ethyl]-3-methyl-pyrrolidin-3-ol]
activation at 1 µM (5-HT2A receptor): -0.3% | activation at 1 µM (5-HT2B receptor): -1.1%

CN(CCO)CCn1ccc2cc(F)c(F)cc21 [2-[2-(5,6-Difluoroindol-1-yl)ethyl-methyl-amino]ethanol]
activation at 1 µM (5-HT2A receptor): 6.2% | activation at 1 µM (5-HT2B receptor): 0.1%

COc1ccc2c3c([nH]c2c1)CCN(C)CC3 [TBG, 8-methoxy-3-methyl-1,2,3,4,5,6-hexahydroazepino[4,5-b]indole, reference compound]
activation at 1 µM (5-HT2A receptor): 18.2% | activation at 1 µM (5-HT2B receptor): -2.2%
